{"source": "patent US7226911B2", "about": "“Hair keratin-associated proteins” (Keio University, priority 2001, dated 2007)", "key": {"[1]": {"tested_on": "hair cycle of mouse body hair", "test": "effect of the functional peptide to the hair cycle of mouse body hair", "assay_type": "in vivo", "conditions": "C3H/He mouse, applied to skin, 1% peptide", "from_the_text": "For the application of KAPs as hair growth agent, there is a possible problem for permeability to tissues in an intact size. Therefore, from the point of view of being a hair constituent element, the minimum repeat unit on KAP sequences was searched and designing of peptides was attempted with the crosslinking within the tissues as a goal. After preparing alignment from the primary sequence of amino acid obtained in Example 7, repeat motifs are searched, and 2 functional peptides, namely mouse high sulfur type KAPs: N′-SCCXPSCCXP-C′ (X: Q, V, R, I) [Seq. ID No. 2031, and mouse high G/Y type KAPs: N′-YGGXGYGSGY-C′ (X: Y, L, F)[Seq. ID No. 204] were designed. By using these functional peptides, the action to hair formation and hair-matrix cells was evaluated. […] Peptide solvent (Plasebo) was used as a negative control, and […] MINOXIDIL was used as a positive control. […] The effect was significant compared not only with peptide solvent as a negative control (FIG. 30), but also with MINOXIDIL of the same concentration, being a positive control (FIG. 31)."}, "mouse hair-matrix cells": {"tested_on": "mouse hair-matrix cells", "test": "action on isolated mouse hair-matrix cells (energy metabolism activity in the mitochondria; change of form)", "assay_type": "cell-based", "conditions": "during peptide treatment"}}, "data": [{"substance": "N′-YGGXGYGSGY-C′ (X: Y, L, F) [high G/Y type peptide]", "values": [{"measurement": "effect to the hair cycle of mouse body hair (duration until hair coat / formation of body hair)", "setting": "[1]", "value": "shortening effect of the duration until hair coat was observed"}, {"measurement": "change of form of hair-matrix cells", "setting": "mouse hair-matrix cells", "value": "a change of form of hair-matrix cells associated with the differentiation was observed"}]}]}
